ChEMBL document CHEMBL1147247, “New cytotoxic sesterterpenoids and norsesterterpenoids from two sponges of the genus Sarcotragus” (2003)
In brackets after ≈: the same amount, converted by molar mass.

Legend:
Format in all cases: functional
Conditions in all cases: read-out: ED50 (the source's name)
SK-OV-3 = assay: Cytotoxicity against human SKOV3 cells
HCT-15 = assay: Cytotoxicity against human HCT15 cells
XF498 = assay: Cytotoxicity against human XF498 cells
A549 = assay: Cytotoxicity against human A549 cells
SK-MEL-2 = assay: Cytotoxicity against human SK-MEL-2 cells

| Compound | EC50 (SK-OV-3) | EC50 (HCT-15) | EC50 (XF498) | EC50 (A549) | EC50 (SK-MEL-2) |
| --- | --- | --- | --- | --- | --- |
| COc1cccc2c1C(=O)c1c(O)c3c(c(O)c1C2=O)C[C@@](O)(C(=O)CO)C[C@@H]3O[C@H]1C[C@H](N)[C@H](O)[C@H](C)O1 [DOXORUBICIN] | 0.15 µg/mL (≈ 0.276 µM) | 0.24 µg/mL (≈ 0.442 µM) | 0.19 µg/mL (≈ 0.35 µM) | 0.04 µg/mL (≈ 0.0736 µM) | 0.06 µg/mL (≈ 0.11 µM) |
| C/C(=C\CCc1ccoc1)C[C@@H]1C=C(C/C=C/c2ccoc2)C(=O)O1 | 32.3 µg/mL (≈ 95.4 µM) | 4.2 µg/mL (≈ 12.4 µM) | 11.8 µg/mL (≈ 34.9 µM) | 7.9 µg/mL (≈ 23.3 µM) | 4.5 µg/mL (≈ 13.3 µM) |
| CC1=C(O)[C@@H](C/C(C)=C\CC[C@H](C)/C=C/C=C(\C)CCCC2=CCN(CC(=O)[O-])C2=O)OC1=O.[Na+] [SARCOTRINE E] | > 30 µg/mL | > 30 µg/mL | > 30 µg/mL | > 30 µg/mL | > 30 µg/mL |
| COC1C=C(CCC/C(C)=C/C=C/[C@@H](C)CC/C=C(/C)C[C@H]2OC(=O)C(C)=C2O)C(=O)O1 (stereo not given in full) | > 30 µg/mL | 33 µg/mL (≈ 74.2 µM) | > 30 µg/mL | > 30 µg/mL | 10.9 µg/mL (≈ 24.5 µM) |
| CC1=C(O)[C@@H](C/C(C)=C\CC[C@H](C)/C=C/C=C(\C)CCCC2=CC(=O)N(CC(=O)[O-])C2)OC1=O.[Na+] [ISOSARCOTRINE E] | > 30 µg/mL | > 30 µg/mL | > 30 µg/mL | > 30 µg/mL | > 30 µg/mL |
| COC(=O)[C@H](O)C/C(C)=C\CC[C@H](C)/C=C/C=C(\C)CCCC1=CC(=O)O[C@H]1O [SARCOTIN N] | > 30 µg/mL | 21.7 µg/mL (≈ 53.4 µM) | > 30 µg/mL | 19.4 µg/mL (≈ 47.7 µM) | 10.9 µg/mL (≈ 26.8 µM) |
| CC(=O)C(O)C(O)C/C(C)=C\CC[C@H](C)/C=C/C=C(\C)CCCC1=CC(=O)OC1O (stereo not given in full) [SARCOTIN O] | 14.9 µg/mL (≈ 35.4 µM) | 4.6 µg/mL (≈ 10.9 µM) | 11.5 µg/mL (≈ 27.3 µM) | 6.8 µg/mL (≈ 16.2 µM) | 3 µg/mL (≈ 7.13 µM) |
